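Cells were grown in 96-well plates and exposed to each compound for 48 hours at five concentrations; endpoints were interpolated linearly between bracketing concentrations, or set to the highest concentration if not reached. The concentration for 50% growth inhibition is given as GI50. TGI denotes the concentration required for complete inhibition of growth.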 Bounds are passed on as bounds.

Test systems include HCT-116 colon; HOP-92 NSCLC; KM12 colon; PC-3 prostate; SK-MEL-28 melanoma; SN12C renal; SR leukemia; TK-10 renal; U251 CNS; UACC-62 melanoma.
What all share (test): NCI-60 cell line screen, 48 h

As to `Nc1nc(N)c2cc(S(=O)(=O)c3ccc4ccccc4c3)ccc2n1`, the TGI with HCT-116 colon was above 100 µM; in the experiment with HOP-92 NSCLC, 34.8 µM; with KM12 colon, above 100 µM; in the experiment with PC-3 prostate it was above 100 µM; in the experiment with SK-MEL-28 melanoma it was above 100 µM; in the experiment on SN12C renal, above 100 µM. The TGI with SR leukemia was above 100 µM; in the experiment with TK-10 renal it was above 81.2 µM; in the experiment on U251 CNS, 23.6 µM; in the experiment on UACC-62 melanoma, above 100 µM. In addition, in the experiment with SR leukemia, the GI50 was above 100 µM.
Turning to `CCN1CCN(Cc2ccc(Nc3ncc(F)c(-c4cc(F)c5nc(C)n(C(C)C)c5c4)n3)nc2)CC1`, the GI50 with HCT-116 colon is 0.336 µM; in the experiment with HOP-92 NSCLC, 0.0337 µM; in the experiment with KM12 colon, 0.56 µM; in the experiment with PC-3 prostate, 0.0527 µM; in the experiment with SK-MEL-28 melanoma, 6.03 µM; in the experiment on SN12C renal, 5.55 µM. Also, the GI50 in the experiment with SR leukemia is 0.101 µM; with TK-10 renal, 0.029 µM; with U251 CNS, 0.317 µM; in the experiment on UACC-62 melanoma, 6.39 µM. Moreover, the TGI with HCT-116 colon came to 11.7 µM; in the experiment with HOP-92 NSCLC it was 50 µM; with KM12 colon, 9.29 µM; in the experiment with PC-3 prostate it was 11.1 µM; in the experiment on SK-MEL-28 melanoma it was 12.9 µM; in the experiment on SN12C renal, 12.6 µM. In addition, the TGI with SR leukemia is 6.92 µM; with TK-10 renal, 8.63 µM; in the experiment with U251 CNS, 11.6 µM; in the experiment with UACC-62 melanoma, 14.2 µM.
In the case of `COc1ccccc1CNCCCN1C(=O)c2ccc3c4c(ccc(c24)C1=O)C(=O)N(CCCNCCCCNCCCN)C3=O`, the GI50 in the experiment on HCT-116 colon was 0.315 µM; with HOP-92 NSCLC, 0.67 µM; in the experiment with KM12 colon, 0.338 µM; in the experiment with PC-3 prostate, 0.561 µM; in the experiment with SK-MEL-28 melanoma, 0.388 µM; in the experiment on SN12C renal, 0.319 µM. Also, the GI50 in the experiment on SR leukemia was 0.322 µM; in the experiment with TK-10 renal, 0.959 µM; in the experiment on U251 CNS it was 0.339 µM; in the experiment on UACC-62 melanoma, 0.362 µM. In addition, the TGI in the experiment on HCT-116 colon came out at 1.16 µM; in the experiment with HOP-92 NSCLC it was 5.23 µM; with KM12 colon, 1.46 µM; in the experiment on PC-3 prostate, 5.23 µM; in the experiment with SK-MEL-28 melanoma it was 1.44 µM; in the experiment on SN12C renal, 1.5 µM. The TGI was above 23.2 µM in the experiment on SR leukemia, 6.28 µM with TK-10 renal, 1.3 µM in the experiment on U251 CNS and 1.69 µM in the experiment with UACC-62 melanoma.
With `Cc1nc2ccc(-n3ncc(C(=O)c4cc5ccccc5[nH]4)c3N)cc2[nH]1`, the GI50 in the experiment with HCT-116 colon was 4.51 µM; in the experiment on HOP-92 NSCLC it was 21.9 µM; in the experiment with KM12 colon it was 3.53 µM; with PC-3 prostate, 9.65 µM; in the experiment on SK-MEL-28 melanoma, 8.78 µM; with SN12C renal it was 12.7 µM. For the same compound, the GI50 in the experiment on SR leukemia was 2.82 µM; with TK-10 renal, 18.4 µM; in the experiment on U251 CNS, 1.44 µM; in the experiment with UACC-62 melanoma, 4.24 µM. Besides, the TGI was above 100 µM in the experiment with HCT-116 colon; 98.9 µM in the experiment on HOP-92 NSCLC; 43.1 µM with KM12 colon; above 100 µM with PC-3 prostate; above 100 µM in the experiment with SK-MEL-28 melanoma; above 100 µM in the experiment with SN12C renal. The TGI in the experiment on SR leukemia was 31.2 µM; in the experiment on TK-10 renal it was above 100 µM; in the experiment with U251 CNS, above 100 µM; in the experiment with UACC-62 melanoma, 24.9 µM.
On to `COc1cc(/C=C2\CCC/C(=C\c3cc(CN4CCCC4)c(O)c(OC)c3)C2=O)cc(CN2CCCC2)c1O`, for which the GI50 was 1.66 µM in the experiment with HCT-116 colon; 2.11 µM with HOP-92 NSCLC; 2.73 µM in the experiment with KM12 colon; 3.88 µM in the experiment with PC-3 prostate; 10.1 µM in the experiment with SK-MEL-28 melanoma; 4.89 µM in the experiment with SN12C renal. Also, the GI50 in the experiment on SR leukemia is 2.56 µM; with TK-10 renal it was 4.36 µM; in the experiment with U251 CNS, 3.03 µM; in the experiment with UACC-62 melanoma it was 3.45 µM. In addition, the TGI came to 3.36 µM with HCT-116 colon; 11.8 µM in the experiment on HOP-92 NSCLC; 7.15 µM in the experiment with KM12 colon; 16.6 µM with PC-3 prostate; 22.7 µM in the experiment with SK-MEL-28 melanoma; 21.2 µM with SN12C renal. The TGI is 11.8 µM in the experiment on SR leukemia, 15.5 µM in the experiment with TK-10 renal, 11.2 µM in the experiment with U251 CNS and 12.9 µM in the experiment with UACC-62 melanoma.
For the compound `CSC1=CC(=O)c2ccccc2C1=O`, the GI50 with HCT-116 colon is 1.52 µM; with HOP-92 NSCLC it was 0.811 µM; with KM12 colon it was 6.75 µM; with PC-3 prostate, 2.54 µM; with SK-MEL-28 melanoma, 11.1 µM; with SN12C renal it was 5.31 µM. Besides, the GI50 in the experiment on SR leukemia is 3.11 µM; in the experiment on TK-10 renal it was 2.66 µM; with U251 CNS it was 11 µM; in the experiment on UACC-62 melanoma it was 4.06 µM. The TGI was 2.92 µM with HCT-116 colon; 2.19 µM with HOP-92 NSCLC; 22.5 µM in the experiment with KM12 colon; 12.5 µM in the experiment with PC-3 prostate; 23.8 µM with SK-MEL-28 melanoma; 19.4 µM with SN12C renal. The TGI amounted to 8.98 µM with SR leukemia, 5.5 µM with TK-10 renal, 23.8 µM in the experiment on U251 CNS and 17.1 µM in the experiment on UACC-62 melanoma.

The record behind these values is PubChem BioAssay (NCI).
